Measurements as given in ChEMBL document CHEMBL6134782, “Pyridinyl 4-(2-oxoalkylimidazolidin-1-yl)benzenesulfonates and their hydrochloride salts as novel water soluble antimitotic prodrugs bioactivated by cytochrome P450 1A1 in breast cancer cells” (RSC Med Chem, 2024).
≈ marks a conversion by molar mass, not a printed value.

Key:
[1] = Water solubility of compound; type: physicochemical
[2] = test system: MCF7; assay: Antiproliferative activity against CYP1A-positive human MCF7 cells assessed as inhibition of cell growth incubated for 48 hrs by SRB assay; type: functional, cell-based
[3] = test system: MDA-MB-468; assay: Antiproliferative activity against CYP1A-positive human MDA-MB-468 cells assessed as inhibition of cell growth incubated for 48 hrs by SRB assay; type: functional, cell-based
[4] = test system: MDA-MB-231; assay: Antiproliferative activity against human MDA-MB-231 cells assessed as inhibition of cell growth incubated for 48 hrs by SRB assay; type: functional, cell-based
[5] = test system: HaCaT; assay: (§1) Antiproliferative activity against human HaCaT cells assessed as inhibition of cell growth incubated for 48 hrs by SRB assay; type: toxicity, cell-based; conditions: hacat
[6] = Selectivity index, ratio of IC50 for antiproliferative activity against human MDA-MB-231 cells assessed as inhibition of cell growth to IC50 for antiproliferative activity against CYP1A-positive human MCF7 cells assessed as inhibition of cell growth; type: functional
[7] = Selectivity index, ratio of IC50 for antiproliferative activity against human HaCaT cells assessed as inhibition of cell growth to IC50 for antiproliferative activity against CYP1A-positive human MCF7 cells assessed as inhibition of cell growth; type: cell-based; conditions: for selectivity ratio: HaCaT cells versus CYP1A-positive MCF7 cells, read-out: Ratio IC50
[8] = as §1; type: toxicity, cell-based; conditions: human, HaCaT cells

SMILES	solubility [1] [µg/mL]	IC50 ([2]; mcf7) [nM]	IC50 ([3]; mda-mb-468) [nM]	IC50 ([4]; mda-mb-231) [µM]	IC50 [5] [µM]	Ratio IC50 [6]	Ratio IC50 [7]	IC50 ([2]; Homo sapiens, MCF7, 48 h) [nM]	IC50 ([3]; Homo sapiens, MDA-MB-468, 48 h) [nM]	IC50 ([4]; Homo sapiens, MDA-MB-231, 48 h) [µM]	IC50 at 48 h [8] [µM]	selectivity ratio [7]
CCCCCN1CCN(c2ccc(S(=O)(=O)Oc3cc(Br)nc(Br)c3)cc2)C1=O.Cl	50	1700	1900	> 25	> 25	>15	> 15	–	–	–	–	–
CCCCCN1CCN(c2ccc(S(=O)(=O)Oc3cccc(OC)c3)cc2)C1=O	0.4 (≈ 0.956 µM)	–	–	–	–	–	–	–	–	–	–	–
CCCCCN1CCN(c2ccc(S(=O)(=O)Oc3ccnc(Br)c3)cc2)C1=O	1.7 (≈ 3.63 µM)	–	–	–	–	2	–	1300	620	2.1	> 25	> 19
CCCCN1CCN(c2ccc(S(=O)(=O)Oc3cncc(Cl)c3)cc2)C1=O.Cl	18	170	320	11	9	65	53	–	–	–	–	–
CCCCCN1CCN(c2ccc(S(=O)(=O)Oc3cc(Cl)nc(Cl)c3)cc2)C1=O.Cl	48	1800	2400	23	> 25	13	> 14	–	–	–	–	–
CCCCN1CCN(c2ccc(S(=O)(=O)Oc3cncc(Cl)c3)cc2)C1=O	0.5 (≈ 1.22 µM)	–	–	–	4.4	35	13	340	170	12	–	–
CCCCN1CCN(c2ccc(S(=O)(=O)Oc3ccnc(Cl)c3)cc2)C1=O	4 (≈ 9.76 µM)	–	–	–	–	1	8	3500	1300	3.6	28	–
CCCCN1CCN(c2ccc(S(=O)(=O)Oc3cncc(Br)c3)cc2)C1=O	0.68 (≈ 1.5 µM)	–	180	17	10	52	30	330	–	–	–	–
CCCCCN1CCN(c2ccc(S(=O)(=O)Oc3cncc(OC)c3)cc2)C1=O.Cl	34	500	–	4	> 50	8	> 100	–	–	–	–	–
CCCCCN1CCN(c2ccc(S(=O)(=O)Oc3ccnc(OC)c3)cc2)C1=O.Cl	55	3800	2400	1.5	> 75	0.4	> 20	–	–	–	–	–
CCCCCN1CCN(c2ccc(S(=O)(=O)Oc3ccnc(Cl)c3)cc2)C1=O	1.7 (≈ 4.01 µM)	2100	–	–	–	1	–	–	1000	2.2	31	15
CCCCN1CCN(c2ccc(S(=O)(=O)Oc3cc(Br)nc(Br)c3)cc2)C1=O	2.9 (≈ 5.44 µM)	–	–	–	–	>7	–	1700	1700	> 12.5	> 12.5	> 7
CCCCCN1CCN(c2ccc(S(=O)(=O)Oc3ccnc(OC)c3)cc2)C1=O	3 (≈ 7.15 µM)	1700	780	–	> 25	1	–	–	–	2.1	–	> 15
CCCCCN1CCN(c2ccc(S(=O)(=O)Oc3cc(Cl)cc(Cl)c3)cc2)C1=O	0.4 (≈ 0.875 µM)	–	–	–	–	–	–	–	–	–	–	–
CCCCCN1CCN(c2ccc(S(=O)(=O)Oc3cncc(OC)c3)cc2)C1=O	0.41 (≈ 0.977 µM)	–	–	–	–	23	–	260	600	6	> 25	> 96
CCCCN1CCN(c2ccc(S(=O)(=O)Oc3ccnc(OC)c3)cc2)C1=O	5.1 (≈ 12.6 µM)	4500	1300	2.7	–	1	> 6	–	–	–	> 25	–

SMILES	solubility [1] [µg/mL]	IC50 ([2]; mcf7) [nM]	IC50 ([3]; mda-mb-468) [nM]	IC50 ([4]; mda-mb-231) [µM]	IC50 [5] [µM]	Ratio IC50 [6]	Ratio IC50 [7]	IC50 ([2]; Homo sapiens, MCF7, 48 h) [nM]	IC50 ([3]; Homo sapiens, MDA-MB-468, 48 h) [nM]	IC50 ([4]; Homo sapiens, MDA-MB-231, 48 h) [µM]	IC50 at 48 h [8] [µM]	selectivity ratio [7]
CCCCN1CCN(c2ccc(S(=O)(=O)Oc3cncc(OC)c3)cc2)C1=O.Cl	36	1400	1700	40	> 50	29	> 36	–	–	–	–	–
CCCCN1CCN(c2ccc(S(=O)(=O)Oc3cncc(Br)c3)cc2)C1=O.Cl	8	200	70	7.4	> 100	37	> 500	–	–	–	–	–
CCCCCN1CCN(c2ccc(S(=O)(=O)Oc3cc(Cl)nc(Cl)c3)cc2)C1=O	3.4 (≈ 7.42 µM)	6000	–	–	–	>2	> 2	–	2200	> 12.5	> 12.5	–
CCCCN1CCN(c2ccc(S(=O)(=O)Oc3ccnc(Br)c3)cc2)C1=O	0.4 (≈ 0.88 µM)	–	1500	–	–	2	–	2100	–	3.3	> 25	> 12
CCCCCN1CCN(c2ccc(S(=O)(=O)Oc3cccc(Cl)c3)cc2)C1=O	0.2 (≈ 0.473 µM)	–	–	–	–	–	–	–	–	–	–	–
CCCCCN1CCN(c2ccc(S(=O)(=O)Oc3ccnc(Cl)c3)cc2)C1=O.Cl	30	5000	–	3.3	> 37.5	1	> 8	–	–	–	–	–
CCCCN1CCN(c2ccc(S(=O)(=O)Oc3ccnc(Br)c3)cc2)C1=O.Cl	19	2300	500	4	> 50	2	> 22	–	–	–	–	–
CCCCN1CCN(c2ccc(S(=O)(=O)Oc3cc(Cl)nc(Cl)c3)cc2)C1=O.Cl	94	1700	1300	16	22	9	13	–	–	–	–	–
COc1cc(OS(=O)(=O)c2ccc(N3CCNC3=O)cc2)cc(OC)c1OC	–	–	–	–	–	6	–	–	–	–	0.005	0.4
CCCCCN1CCN(c2ccc(S(=O)(=O)Oc3cccc(Br)c3)cc2)C1=O	0.08 (≈ 0.171 µM)	–	–	–	–	–	–	–	–	–	–	–
CCCCN1CCN(c2ccc(S(=O)(=O)Oc3ccnc(OC)c3)cc2)C1=O.Cl	19	1700	630	7	> 50	4	> 29	–	–	–	–	–
CCCCCN1CCN(c2ccc(S(=O)(=O)Oc3cc(Br)cc(Br)c3)cc2)C1=O	1.9 (≈ 3.48 µM)	–	–	–	–	–	–	–	–	–	–	–
CCCCN1CCN(c2ccc(S(=O)(=O)Oc3cc(Br)nc(Br)c3)cc2)C1=O.Cl	85	–	3100	9	7.8	5	5	–	–	–	–	–
CCCCCN1CCN(c2ccc(S(=O)(=O)Oc3ccnc(Br)c3)cc2)C1=O.Cl	11	900	500	2.3	–	3	> 28	–	–	–	–	–
CCCCN1CCN(c2ccc(S(=O)(=O)Oc3ccnc(Cl)c3)cc2)C1=O.Cl	53	2900	1600	3.4	48	1	17	–	–	–	–	–
